Test results taken from PubChem BioAssay AID238 (DTP/NCI, 2004).
Values joined by “and” are separate entries in the source; they are usually repeats but may differ in a detail not shown here. Equal entries are not always repeated. Inconclusive results and toxic doses are left out.

Tested on: CAF1 mice, leiomyosarcoma No.2 ip, survival T/C%
Experiment: NCI In Vivo Anticancer Drug Screen. Data for tumor model Leiomyosarcoma (No. 2) (intraperitoneal) in CAF1 mice
Settings: endpoint: mean survival time, higher = longer survival
Protocol: The antitumor activity of compounds was measured in mice bearing transplantable tumors. Survival or tumor size were measured and the results are expressed as the measurement made in the treated group (T) divided by the measurement made in the vehicle treated control group (C). The tumor model used in this assay is Leiomyosarcoma (No. 2) (intraperitoneal) in CAF1 mice

[1] = dose: 2.5 mg/kg/injection, schedule: Q01DX010 (ip), vehicle: saline
[2] = dose: 5.0 mg/kg/injection, schedule: Q01DX010 (ip), vehicle: saline
[3] = dose: 10.0 mg/kg/injection, schedule: Q01DX010 (ip), vehicle: saline
[4] = dose: 20.0 mg/kg/injection, schedule: Q01DX010 (ip), vehicle: saline
[5] = dose: 3.13 mg/kg/injection, schedule: Q01DX010 (ip), vehicle: saline
[6] = dose: 6.25 mg/kg/injection, schedule: Q01DX010 (ip), vehicle: saline
[7] = dose: 25.0 mg/kg/injection, schedule: Q01DX010 (ip), vehicle: saline
[8] = dose: 8.0 mg/kg/injection, schedule: Q01DX010 (ip), vehicle: saline
[9] = dose: 16.0 mg/kg/injection, schedule: Q01DX010 (ip), vehicle: saline
[10] = dose: 32.0 mg/kg/injection, schedule: Q01DX010 (ip), vehicle: saline
[11] = dose: 64.0 mg/kg/injection, schedule: Q01DX010 (ip), vehicle: saline
[12] = dose: 80.0 mg/kg/injection, schedule: Q01DX010 (ip), vehicle: saline
[13] = dose: 120.0 mg/kg/injection, schedule: Q01DX010 (ip), vehicle: saline
[14] = dose: 12.5 mg/kg/injection, schedule: Q01DX010 (ip), vehicle: saline
[15] = dose: 50.0 mg/kg/injection, schedule: Q01DX010 (ip), vehicle: saline
[16] = dose: 100.0 mg/kg/injection, schedule: Q01DX010 (ip), vehicle: saline
[17] = dose: 200.0 mg/kg/injection, schedule: Q01DX010 (ip), vehicle: saline
[18] = dose: 3.0 mg/kg/injection, schedule: Q01DX010 (ip), vehicle: saline
[19] = dose: 6.0 mg/kg/injection, schedule: Q01DX010 (ip), vehicle: saline
[20] = dose: 12.0 mg/kg/injection, schedule: Q01DX010 (ip), vehicle: saline
[21] = dose: 31.3 mg/kg/injection, schedule: Q01DX010 (ip), vehicle: saline

With `CC(=O)O[C@]1(C(C)=O)CC[C@H]2[C@@H]3C[C@H](C)C4=CC(=O)C=C[C@]4(C)[C@@]3(F)[C@@H](O)C[C@@]21C` the T/C (dose: 12.5 mg/kg/injection, schedule: Q01DX010 (sc), vehicle: steriod suspending solution) was 96 % of control, the T/C (dose: 25.0 mg/kg/injection, schedule: Q01DX010 (sc), vehicle: steriod suspending solution) was 104 % of control and the T/C (dose: 50.0 mg/kg/injection, schedule: Q01DX010 (sc), vehicle: steriod suspending solution) was 88 % of control. The T/C (dose: 100.0 mg/kg/injection, schedule: Q01DX010 (sc), vehicle: steriod suspending solution) was 88 % of control.

In the case of `S=P(N1CCOCC1)(N1CC1)N1CC1`, the T/C [1] is reported as 96 % of control and 104 % of control, the T/C [2] is reported as 116 % of control and 117 % of control and the T/C [3] is reported as 153 % of control and 179 % of control. The T/C [4] was 164 % of control.

With `N=[N+]=CC(=O)OCC(N)C(=O)O` (stereo not given) the T/C [5] was 96 % of control, the T/C [6] was 104 % of control and the T/C [7] was 96 % of control.

In the case of `c1ccc(CNc2ncnc3[nH]ncc23)cc1`, the T/C [8] is reported as 95 % of control and 103 % of control, the T/C [9] is reported as 92 % of control and 100 % of control and the T/C [10] is reported as 92 % of control and 100 % of control. For the same compound, the T/C [11] was 95 % of control and 96 % of control.

`CN(C)c1ccc(Nc2c3ccccc3nc3ccccc23)cc1` was tested, and the T/C (dose: 36.0 mg/kg/injection, schedule: Q01DX010 (ip), vehicle: saline) was 121 % of control, the T/C (dose: 54.0 mg/kg/injection, schedule: Q01DX010 (ip), vehicle: saline) was 121 % of control and the T/C [12] was 300 % of control. The T/C [13] was 300 % of control.

In the case of `CN(C)c1nc(N(C)C)nc(N(C)C)n1`, the T/C (dose: 18.8 mg/kg/injection, schedule: Q01DX010 (ip), vehicle: saline) is reported as 100 % of control and 108 % of control, the T/C (dose: 37.5 mg/kg/injection, schedule: Q01DX010 (ip), vehicle: saline) is reported as 89 % of control and 112 % of control and the T/C (dose: 75.0 mg/kg/injection, schedule: Q01DX010 (ip), vehicle: saline) is reported as 96 % of control and 104 % of control. The T/C (dose: 150.0 mg/kg/injection, schedule: Q01DX010 (ip), vehicle: saline) was 110 % of control.

In the case of `N#CCSc1ncnc2nc[nH]c12`, the T/C (dose: 15.0 mg/kg/injection, schedule: Q01DX010 (ip), vehicle: saline) is reported as 86 % of control and 113 % of control, the T/C (dose: 30.0 mg/kg/injection, schedule: Q01DX010 (ip), vehicle: saline) is reported as 118 % of control and 120 % of control and the T/C (dose: 60.0 mg/kg/injection, schedule: Q01DX010 (ip), vehicle: saline) is reported as 113 % of control. For the same compound, the T/C [13] was 118 % of control.

With `Oc1cc(CN(CCCl)CCCl)c(O)cc1CN(CCCl)CCCl` the T/C (dose: 0.31 mg/kg/injection, schedule: Q01DX010 (ip), vehicle: saline) was 162 % of control, the T/C (dose: 0.63 mg/kg/injection, schedule: Q01DX010 (ip), vehicle: saline) was 159 % of control and the T/C (dose: 1.25 mg/kg/injection, schedule: Q01DX010 (ip), vehicle: saline) was 159 % of control and 175 % of control and 184 % of control. For the same compound, the T/C [1] was 186 % of control and the T/C [2] was 118 % of control.

With `Cc1cc(N(CCCl)CCCl)ccc1N=Nc1ccccc1C(=O)O` the T/C [3] was 150 % of control and 183 % of control, the T/C [4] was 175 % of control and the T/C (dose: 40.0 mg/kg/injection, schedule: Q01DX010 (ip), vehicle: saline) was 104 % of control and 225 % of control.

For `O=C(O)CCCc1ccc(N(CCCl)CCCl)cc1`, the T/C [6] was 153 % of control and 279 % of control and the T/C [14] was 203 % of control and 225 % of control.

For `O=c1c(O)cccc2cc(O)c(O)c(O)c12`, the T/C [7] was 88 % of control and the T/C [15] was 102 % of control.

With `C#CCN(C)Cc1ccccc1` the T/C [15] was 102 % of control, the T/C [16] was 88 % of control and the T/C [17] was 91 % of control.

For `Nc1ncnc2[nH]ncc12`, the T/C (dose: 1.5 mg/kg/injection, schedule: Q01DX010 (ip), vehicle: saline) was 107 % of control and 112 % of control, the T/C [18] was 103 % of control and 108 % of control and the T/C [19] was 96 % of control and 100 % of control. The T/C [20] was 88 % of control and 95 % of control.

For `CS(=O)(=O)OCC(O)C(O)C(O)C(O)COS(C)(=O)=O` (stereo not given), the T/C [7] was 104 % of control, the T/C [15] was 109 % of control and 113 % of control and the T/C [16] was 118 % of control. The T/C [17] was 118 % of control.

For `C[C@H]1C(=O)O[C@@H]2CCN3CC=C(COC(=O)[C@](C)(O)[C@@]1(C)O)[C@H]23`, the T/C [5] was 100 % of control, the T/C [6] was 94 % of control and 109 % of control and the T/C [14] was 86 % of control and 118 % of control. The T/C [7] was 108 % of control and 118 % of control.

`Nc1nc(SCc2ccccc2)c2[nH]cnc2n1` was tested, and the T/C [8] was 112 % of control and 115 % of control, the T/C [9] was 100 % of control and the T/C [10] was 107 % of control and 120 % of control. The T/C [11] was 103 % of control and 104 % of control.

With `OCC1OC(n2cnc3c(=S)nc[nH]c32)C(O)C1O` (stereo not given) the T/C [4] was 161 % of control and 248 % of control, the T/C [12] was 153 % of control and the T/C (dose: 160.0 mg/kg/injection, schedule: Q01DX010 (ip), vehicle: saline) was 87 % of control.

With `Nc1nc2n[nH]nc2c(=O)[nH]1` the T/C (dose: 25.0 mg/kg/injection, schedule: Q01DX010 (ip), vehicle: alkali diluted with saline) was 188 % of control and 225 % of control, the T/C [7] was 253 % of control and the T/C (dose: 50.0 mg/kg/injection, schedule: Q01DX010 (ip), vehicle: alkali diluted with saline) was 180 % of control and 250 % of control. For the same compound, the T/C [15] was 186 % of control, the T/C (dose: 100.0 mg/kg/injection, schedule: Q01DX010 (ip), vehicle: alkali diluted with saline) was 190 % of control and 246 % of control and the T/C (dose: 200.0 mg/kg/injection, schedule: Q01DX010 (ip), vehicle: alkali diluted with saline) was 185 % of control.

With `O=C(Nc1ccc(C2=NCCN2)cc1)c1ccc(C(=O)Nc2ccc(C3=NCCN3)cc2)c([N+](=O)[O-])c1` the T/C [19] was 121 % of control and the T/C [8] was 113 % of control.

`O[C@H](CN1CC1)[C@@H](O)CN1CC1` was tested, and the T/C (dose: 125.0 micrograms/kg/injection, schedule: Q01DX010 (ip), vehicle: saline) was 150 % of control, the T/C (dose: 250.0 micrograms/kg/injection, schedule: Q01DX010 (ip), vehicle: saline) was 179 % of control and the T/C (dose: 500.0 micrograms/kg/injection, schedule: Q01DX010 (ip), vehicle: saline) was 204 % of control.

With `N=C(N)c1ccc(Nc2ccc(C(=N)N)cc2)cc1` the T/C [18] was 108 % of control, the T/C [19] was 104 % of control and the T/C [20] was 100 % of control.

For `CCCNc1ncnc2[nH]ncc12`, the T/C [6] was 114 % of control and the T/C [14] was 88 % of control and 90 % of control.

For `CCCCNc1ncnc2c1cnn2C`, the T/C (dose: 15.6 mg/kg/injection, schedule: Q01DX010 (ip), vehicle: saline) was 92 % of control, the T/C [21] was 89 % of control and 103 % of control and the T/C (dose: 62.5 mg/kg/injection, schedule: Q01DX010 (ip), vehicle: saline) was 90 % of control and 112 % of control.

`O=C(Nc1ccc(C2=NCCN2)cc1)c1cccc(C(=O)Nc2ccc(C3=NCCN3)cc2)c1` was tested, and the T/C [8] was 260 % of control and 300 % of control and the T/C [9] was 257 % of control and 260 % of control.

With `CSc1ncnc2nc[nH]c12` the T/C [7] was 100 % of control and 109 % of control, the T/C [15] was 104 % of control and 109 % of control and the T/C [16] was 104 % of control and 113 % of control. The T/C [17] was 100 % of control.

`O=c1[nH]cc(F)c(=O)[nH]1` was tested, and the T/C [2] was 195 % of control, the T/C [3] was 213 % of control and 227 % of control and the T/C [4] was 181 % of control and 186 % of control.

In the case of `CN(C)/N=N/c1nc[nH]c1C(N)=O`, the T/C [7] is reported as 109 % of control, the T/C [15] is reported as 109 % of control and 113 % of control and the T/C [16] is reported as 118 % of control. The T/C [17] was 163 % of control and the T/C (dose: 400.0 mg/kg/injection, schedule: Q01DX010 (ip), vehicle: saline) was 86 % of control.

For `COc1ccc2c(c1OC)C(=O)O[C@@H]2[C@H]1c2c(cc3c(c2OC)OCO3)CCN1C`, the T/C [21] was 92 % of control.
